Two compounds from US9265707B2, “Cosmetic composition comprising coumestrol or a bean extract containing coumestrol for skin care” (AMOREPACIFIC CORPORATION, priority 2010, dated 2016) can be followed below.

Structures are written as SMILES.

The test system of experiment [1] is UVB-induced reactive oxygen species (ROS) in keratinocytes. Kind of experiment: Scavenging of UVB-induced reactive oxygen species (DCFH-DA fluorescence). The format is cell-based. Particulars: UVB 30 mJ/cm^2, relative to UV-treated control. The source says:
2′,7′-Dichlorodihydrofluorescein diacetate (DCFH-DA; Molecular Probes, Inc., OR, USA) was used to evaluate the coumestrol's effect of scavenging UVB-induced ROS. DCFH-DA is an fat-soluble substance well known as a detector of ROS in cells. It is easily absorbed by cells and turned into water-soluble 2′,7′-dichlorodihydrofluorescein as a result of hydrolysis of the acetate group by esterase in the cells. Since it is turned to 2′,7′-dichlorofluorescein (DCF) which emits fluorescence after reaction with intracellular oxidizing agents, the quantity of intracellular ROS can be evaluated by measuring the intensity of fluorescence from cells treated with DCFH-DA.
Keratinocytes (acquired from Dr. Fusenig at German Cancer Research Center) were seeded onto a 96-well black plate (Greiner BioOne Inc., NC, USA) for fluorescence measurement at a density of 1×10^4 cells per well and cultured for 24 hours. Then, the cells were treated with coumestrol diluted in fresh FBS-free medium to a final concentration of 0.01, 0.1 or 1 μM. After addition of the test substance, the cells were cultured for 24 hours. After removing the remaining medium by washing with HEPES-buffered control salt solution (HCSS), 20 μM DCFH-DA in 100 μL of HCSS was added. […] Then, after adding 100 μL of HCSS, the cells were irradiated with UVB of 30 mJ/cm^2 to induce production of ROS. […] The fluorescence intensity of DCF was measured with the Wallac VICTOR2 fluorometer (Wallac, Turku, Finland) at excitation wavelength of 485 nm and emission wavelength of 530 nm. ROS scavenging effect (%) relative to the control group was calculated from the measured fluorescence intensity.

The next experiment relates to MMP-1. The experiment can be described thus: Inhibition of UV-induced MMP-1 expression (ELISA). The format is cell-based. The note with it: Fibroblast, light or radiation study, human fibroblasts, UVB 15 mJ/cm^2, 48 hours, untreated control 100, UV-treated control 132, read-out: MMP1 activity (%). Here is the method: Human fibroblasts (CAS-C-004-5C, Invitrogen, CA, USA) were used to evaluate the coumestrol's effect of inhibiting UV-induced MMP-1 expression. The cells were seeded onto a 24-well plate at a density of 1×10^4 cells per well and cultured for about 24 hours in a medium containing 10% FBS until ˜about 80% confluency. After replacing the medium with an FBS-free medium, the cells were cultured for 24 hours. After washing once with PBS and adding 100 μL of PBS, the cells were irradiated with UVB of 15 mJ/cm^2. After removing the PBS, the cells were treated with coumestrol diluted to a final concentration of 0.01, 0.1 or 1 μM in a fresh FBS-free medium. Expression of MMP-1 was evaluated 48 hours after the treatment with the test substance. The expression of MMP-1 was evaluated using an enzyme-linked immunosorbent assay (ELISA) kit (RPN 2610; Biotrak Amersham Pharmacia Biotech, UK) after collecting a supernatant from the cell culture. The quantity of MMP-1 was determined from the total protein quantity.
(In general: ELISA stands for enzyme-linked immunosorbent assay.)

The test system of the next experiment is type I pN collagen. Kind of experiment: Type I pN collagen synthesis (PIP EIA kit). It is filed as cell-based. The note with it: human fibroblasts, 48 hours, untreated control 100. Here is the method: Human fibroblasts (CAS-C-004-5C, Invitrogen, CA, USA) were used to evaluate the coumestrol's effect on type I pN collagen synthesis. The cells were seeded onto a 24-well plate at a density of 1×10^4 cells per well and cultured for about 24 hours in a medium containing 10% FBS until ˜about 80% confluency. The cells were treated with coumestrol diluted to a final concentration of 0.01, 0.1 or 1 μM in a fresh FBS-free medium. The synthesized quantity of type I pN collagen was measured using a procollagen type I C-peptide (PIP) EIA kit (MK101; Takara Shuzo, Kyoto, Japan) by collecting a supernatant from the cell culture 48 hours after the treatment with the test substance. The quantity of type I pN collagen was determined from the total protein quantity.

Experiment [2] has as its system advanced glycation end product (AGE) in human fibroblasts. Kind of experiment: Inhibition of glycation of skin cells (AGE ELISA). It is filed as cell-based. Particulars: 2.5 μM, UVB 50 mJ/cm^2, 24 hours, untreated control 0.156. As to the method: (§1) Human fibroblasts (CAS-C-004-5C, Invitrogen, CA, USA) were used to evaluate the coumestrol's effect of inhibiting glycation of skin cells. The cells were seeded onto a 6-well plate at a density of 5×10^4 cells per well and cultured for about 24 hours in a medium containing 10% FBS until ˜about 80% confluency. After washing once with PBS and adding 100 μL of PBS, the cells were irradiated with UVB of 50 mJ/cm^2. After removing the PBS, the cells were treated with coumestrol diluted to a final concentration of 2.5 μM in a fresh FBS-free medium. Glycation of skin cells was evaluated using the Oxiselect™ advanced glycation end product (AGE) ELISA kit 24 hours after the treatment with the test substance.

The test system of experiment [3] is ATP production in human fibroblasts. Kind of experiment: ATP production in cells (ATP determination kit). The note with it: 2.5 μM; human fibroblasts treated as in Test Example 4; untreated control 803. The format is cell-based. Here is the method: as §1
Following treatment of human fibroblasts (CAS-C-004-5C, Invitrogen, CA, USA) as in Test Example 4, ATP production in the cells was evaluated using an ATP determination kit (Invitrogen, A22066).

In experiment [4] the test system is Mouse melanocytes (MeI-Ab cells). The experiment can be described thus: Inhibition of melanin production. It is filed as cell-based. Particulars: Melanocyte, read-out: Melanin production inhibiting effect (%).
The subject of experiment [5] is prostaglandin E2 production in human fibroblasts. Kind of experiment: Inhibition of prostaglandin E2 (PGE2) production. The format is cell-based. The note with it: Fibroblast, A23187 and arachidonic acid stimulation, relative to coumestrol-untreated group, average of 5, read-out: Prostaglandin E2 production inhibiting effect (%). As to the method:
The coumestrol's effect of inhibiting prostaglandin E2 production was tested as follows. Human fibroblasts (CAS-C-004-5C, Invitrogen, CA, USA) were cultured for 24 hours in a CO2 incubator. After replacing the medium with a fresh FBS-free medium and culturing for 2 hours, the cells were treated with coumestrol diluted to a final concentration of 0.01, 0.1 or 1 μM in a fresh FBS-free medium. The cells were then cultured for 2 hours at 37° C. in a 5% (v/v) CO2 incubator. Subsequently, after treating with 50 μM Calcium Ionophore A23187 and arachidonic acid for 5 minutes to stimulate prostaglandin E2, the cells were lysed and prostaglandin E2 was quantitated by measuring absorbance at 450 nm using an ELISA reader. The inhibiting effect (%) was calculated relative to the coumestrol-untreated group. Measurement was made 5 times and the result was averaged.

For a further experiment, the system named is Cyclooxygenase-2 (COX-2). The experiment can be described thus: Inhibition of COX-2 biosynthesis induced by LPS (western blotting). It is filed as cell-based. The note with it: human fibroblasts, 24 hours. As to the method:
Human fibroblasts (CAS-C-004-5C, Invitrogen, CA, USA) were used to evaluate the coumestrol's effect of inhibiting COX-2 biosynthesis. The cells were seeded onto a 6-well plate at a density of 5×10^4 cells per well and cultured for about 24 hours in a medium containing 10% FBS until ˜80% confluency. The cells were treated with coumestrol diluted to a final concentration of 0.01, 0.1 or 1 μM in a fresh FBS-free medium and then cultured for 24 hours at 37° C. in a 5% (v/v) CO2 incubator. The cells were harvested and the produced COX-2 was quantitated by western blotting.
On the technique in general: In western blotting, separated proteins are transferred to a membrane and probed.

For another experiment, the system named is atopic symptoms. The experiment can be described thus: Improvement of atopic dermatitis (questionnaire, 12 weeks of ointment). The format is in vivo, human. Particulars: ointment containing 0.1% coumestrol, twice a day, people with atopic symptoms. The text has this: They were asked to apply the ointment for 12 weeks, twice a day, at the sites of atopic symptoms. 12 weeks later, the improvement of the atopic symptoms was examined using a questionnaire. Improvement of typical symptoms of atopic dermatitis including “itchiness”, “dryness”, “keratinization”, “dandruff”, “erythema”, “swelling”, “skin fissure” and “ooze and eczema” was examined. The subjects were asked to score the improvement of the symptoms and the result was averaged to evaluate the improvement of atopic dermatitis.

Experiment [6] has as its system transepidermal water loss. The experiment can be described thus: Skin moisturization: transepidermal water loss. It is filed as in vivo, human. Particulars: ointment containing 0.1% coumestrol, 24° C., RH 40%. The text has this: They were asked to apply the ointment for 12 weeks, twice a day, at the sites of atopic symptoms. 12 weeks later, the improvement of the atopic symptoms was examined using a questionnaire. Improvement of typical symptoms of atopic dermatitis including “itchiness”, “dryness”, “keratinization”, “dandruff”, “erythema”, “swelling”, “skin fissure” and “ooze and eczema” was examined. The subjects were asked to score the improvement of the symptoms and the result was averaged to evaluate the improvement of atopic dermatitis. In order to evaluate the improvement of skin moisturizing ability, transepidermal water loss was measured for the subjects of Test Example 9 under constant-temperature, constant-humidity conditions (24° C., RH 40%) using a […].

With `O=c1oc2cc(O)ccc2c2oc3cc(O)ccc3c12` [Coumestrol, 3,9-dihydroxy-6H-benzofuro(3,2-c)(1)benzopyran-6-one], the “ROS scavenging effect (%)” value in experiment [1] (0.01 μM) is reported as 18.7%; in experiment [1] (0.1 μM), 25.6%; in experiment [1] (1 μM), 55.1%. Moreover, the activity at 0.01 µM in the experiment on MMP-1 (0.01 μM) came to 115%. The activity at 0.1 µM in the experiment on MMP-1 (0.1 μM) is 102%. Further, the activity at 1 µM with MMP-1 (1 μM) was 98%. Moreover, the “Synthesis of type I pN collagen (%)” value in the experiment on type I pN collagen (0.01 μM) came out at 115%; with type I pN collagen (0.1 μM), 126%; with type I pN collagen (1 μM), 129%. Moreover, the “Concentration of glycation end product” value in experiment [2] was found to be 0.077 µg/mL. The “Concentration of ATP” value in experiment [3] is 917 nM. In addition, the inhibition at 0.01 µM in [4] was found to be 1.2%; in experiment [5] (0.01 μM), 12.8%. For the same compound, the figures for the inhibition at 0.1 µM in experiment [4] and in experiment [5] (0.1 μM) were 24.4% and 24.8%, respectively. Moreover, the inhibition at 1 µM turned out to be 30.1% in [4] and 38.2% in experiment [5] (1 μM). Besides, the “COX-2 expression level (% relative to control)” value in the experiment on Cyclooxygenase-2 (COX-2) (0.01 μM) was 89 % relative to control; in the experiment with Cyclooxygenase-2 (COX-2) (0.1 μM), 81 % relative to control; with Cyclooxygenase-2 (COX-2) (1 μM) it was 64 % relative to control. In the experiment with atopic symptoms, the “Number of subjects Aggravated” value came to 0. Also, the “Number of subjects Improved” value in the experiment with atopic symptoms was 8. Moreover, the “Number of subjects Not changed” value in the experiment on atopic symptoms worked out at 2. For the same compound, the “Number of subjects Remarkably improved” value in the experiment on atopic symptoms was 5. Also, the “Transepidermal water loss (%)” value in experiment [6] (1 week later, control 34) amounted to 30%; in experiment [6] (4 weeks later, control 39), 32%; in [6] (8 weeks later, control 41), 26%; in [6] (12 weeks later, control 36), 15%.
Regarding `Oc1ccc(O)cc1` [Hydroquinone, hydroquinone, reference compound], the inhibition at 10 µM in experiment [4] (10 μM (positive control), MeI-Ab cells) was found to be 41.1%.
